Results published in ChEMBL document CHEMBL1158662, “Cochinolide, a new gamma-alkylidene bicyclic butenolide with antiviral activity, and its beta-glucopyranoside from Homalium cochinchinensis” (J Nat Prod, 1998).
≈ marks a conversion by molar mass, not a printed value. Calls of active or inactive are those of the source. The rule behind the calls is not given here.

How the values were obtained:
[1] = tested on: Human alphaherpesvirus 2; assay: Antiviral activity against HSV2; type: functional, organism-based
[2] = tested on: Human alphaherpesvirus 1; assay: Antiviral activity against HSV1; type: functional, organism-based

EC50 [1] [µg/mL] | EC50 [2] [µg/mL] | Compound | Activity [1] | Activity [2]
 |  | O=C1OC2=C[C@@H](O[C@@H]3O[C@H](CO)[C@@H](O)[C@H](O)[C@H]3O)CCC2=C1C(O)c1ccccc1 (some centres undefined) | inactive | inactive
0.22 (≈ 0.977 µM) | 0.24 (≈ 1.07 µM) | Nc1nc2c(ncn2COCCO)c(=O)[nH]1 [ACYCLOVIR] |  | 
